# Measured values published in US10231453B2, “5-substituted imidazole derivatives” (BAYER CROPSCIENCE AKTIENGESELLSCHAFT, priority 2015, dated 2019).
# Read-outs that look alike come from different tables or passages of the source.
# Legend:
# Fusarium culmorum = assay: In vitro test for the calculation of the ED50-value with microorganisms, Example Q4: Fusarium culmorum; assay type: cell-based; conditions: liquid culture, spore suspension, 4 to 7 days incubation, spectrometric measurement of mycelium growth
# Procedure: • Solvent: Dimethyl sulfoxide • Culture medium: 14.6 g anhydrous D-glucose (VWR), 7.1 g Mycological Peptone (Oxoid), 1.4 g granulated Yeast Extract (Merck), QSP liter • Inoculum: Spore suspension
# Fungicides were solubilized in DMSO and the solution used to prepare the required range of concentrations. The final concentration of DMSO used in the assay was ≤1%.
# A spore suspension was prepared and diluted to the desired spore density.
# Fungicides were evaluated for their ability to inhibit spore germination and mycelium growth in liquid culture assay. The compounds were added in the desired concentration to the culture medium with spores. After 4 to 7 days incubation, fungi-toxicity of compounds was determined by spectrometric measurement of mycelium growth. Inhibition of fungal growth was determined by comparing the absorbance values in wells containing the fungicides with the absorbance in control wells without fungicides.
# Septoria tritici [1] = assay: In vitro test for the calculation of the ED50-value with microorganisms, Example Q4: Septoria tritici; assay type: cell-based; conditions: liquid culture, spore suspension, 4 to 7 days incubation, spectrometric measurement of mycelium growth
# Leptosphaeria nodorum [2] = assay: In vitro test for the calculation of the ED50-value with microorganisms, Example Q4: Leptosphaeria nodorum; assay type: cell-based; conditions: liquid culture, spore suspension, 4 to 7 days incubation, spectrometric measurement of mycelium growth
# Septoria tritici [3] = assay: In vivo preventive test on Septoria tritici (leaf spot on wheat), Examples E, Q3 and R5; conditions: for pest or weed control at 500 ppm / pest or weed control at 100 ppm: Zymoseptoria tritici, 576 h
# Botrytis cinerea [4] = assay: In vivo preventive test on Botrytis cinerea (grey mould) on gherkin, Examples B, Q1 and R2
# Pyrenophora teres = assay: In vivo preventive test on Pyrenophora teres (net blotch on barley), Examples D, Q2 and R4; conditions: for pest or weed control at 500 ppm / pest or weed control at 100 ppm: Pyrenophora teres, 336 h
# Botrytis cinerea [5] = assay: In vitro test for the calculation of the ED50-value with microorganisms, Example Q4: Botrytis cinerea; assay type: cell-based; conditions: liquid culture, spore suspension, 4 to 7 days incubation, spectrometric measurement of mycelium growth
# Pyricularia oryzae = assay: whole plant or invertebrate; assay type: in vivo; conditions: 192 h, read-out: efficacy
# Leptosphaeria nodorum [6] = assay: In vivo preventive Leptosphaeria nodorum test (wheat), Example N; conditions: Parastagonospora nodorum, 192 h, 500 ppm of active ingredient, preventive spray, evaluated 8 days after inoculation, read-out: efficacy
# Text: After the spray coating has been dried, the plants are sprayed with a spore suspension of Leptosphaeria nodorum.
# Venturia inaequalis = assay: In vivo preventive Venturia test (apples), Example J; conditions: 240 h, read-out: efficacy
# Procedure: After the spray coating has dried on, the plants are inoculated with an aqueous conidia suspension of the causal agent of apple scab (Venturia inaequalis) and then remain for 1 day in an incubation cabinet at approximately 20° C. and a relative atmospheric humidity of 100%.
# The plants are then placed in a greenhouse at approximately 21° C. and a relative atmospheric humidity of approximately 90%.
# The test is evaluated 10 days after the inoculation.
# Puccinia recondita = assay: In vivo preventive test on Puccinia recondita (brown rust on wheat), Examples C and R3; conditions: Puccinia recondita, 264 h, preventive spray, evaluated 11 days after inoculation
# Uromyces appendiculatus = assay: In vivo preventive test on Uromyces appendiculatus (bean rust), Examples G and R7; conditions: 264 h, preventive spray, evaluated 11 days after inoculation
# Sphaerotheca fuliginea = assay: In vivo preventive test on Sphaerotheca fuliginea (powdery mildew on cucurbits), Examples F and R6; conditions: Podosphaera fuliginea, 360 h, preventive spray, evaluated 15 days after inoculation
# [7] = Measurement of LogP values by HPLC on reversed phase columns (EEC directive 79/831 Annex V.A8); assay type: physicochemical; conditions: method [a]: LC-UV, acidic range, 0.1% formic acid in water and acetonitrile as eluent; Table 1
# Procedure: Measurement of Log P values was performed as outlined above.
# Alternaria brassicae = assay: In vivo preventive test on Alternaria brassicae (leaf spot on radish), Examples A and R1; conditions: Alternaria brassicae, 144 h
# Phakopsora pachyrhizi = assay: In vivo preventive Phakopsora test (soybeans), Example I; conditions: 168 h, 100 ppm of active ingredient, preventive spray, evaluated 7 days after inoculation, read-out: efficacy
# [8] = test system: Blumeria graminis fsp. hordei; assay: In vivo preventive Blumeria test (barley), Example K; conditions: 168 h, 500 ppm of active ingredient, preventive spray, evaluated 7 days after inoculation, read-out: efficacy
# Text: After the spray coating has been dried, the plants are dusted with spores of Blumeria graminis fsp. hordei.
# Alternaria solani = assay: In vivo preventive Alternaria test (tomatoes), Example H; conditions: 72 h, 100 ppm of active ingredient, preventive spray, evaluated 3 days after inoculation, read-out: efficacy
smiles,measurement,setting,value
OC(Cc1ccc(Cl)cc1F)(Cn1ccnc1)C1(Cl)CC1 (racemic) [reference compound],Fusarium culmorum ED50 value in ppm,Fusarium culmorum,0.04 ppm
same,Septoria tritici ED50 value in ppm,Septoria tritici [1],0.02 ppm
same,Leptosphaeria nodorum ED50 value in ppm,Leptosphaeria nodorum [2],0.04 ppm
same,Efficacy in %,"Septoria tritici [3]; Example Q3, rate of application 100 ppm, wheat",0%
same,Efficacy in %,"Septoria tritici [3]; Example Q3, rate of application 500 ppm, wheat",100%
same,Efficacy in %,"Botrytis cinerea [4]; Example Q1, rate of application 100 ppm",70%
same,Efficacy in %,"Botrytis cinerea [4]; Example Q1, rate of application 500 ppm",100%
same,Efficacy in %,"Pyrenophora teres; Example Q2, rate of application 100 ppm",0%
same,Efficacy in %,"Pyrenophora teres; Example Q2, rate of application 500 ppm",0%
same,Botrytis cinerea ED50 value in ppm,Botrytis cinerea [5],0.53 ppm
"OC(Cc1ccc(Cl)cc1F)(Cn1cncc1Cl)C1(Cl)CC1 (stereo not drawn) [Example I-27, 2-(1-chlorocyclopropyl)-1-(4-chloro-2-fluorophenyl)-3-(5-chloro-1H-imidazol-1-yl)propan-2-ol]",pest or weed control at 500 ppm,Pyricularia oryzae,90 to 100%
same,Fusarium culmorum ED50 value in ppm,Fusarium culmorum,<0.006 ppm
same,pest or weed control at 500 ppm,Leptosphaeria nodorum [6],90 to 100%
same,pest or weed control at 100 ppm,Venturia inaequalis,90 to 100%
same,Septoria tritici ED50 value in ppm,Septoria tritici [1],<0.006 ppm
same,Leptosphaeria nodorum ED50 value in ppm,Leptosphaeria nodorum [2],<0.006 ppm
same,pest or weed control at 500 ppm,"Septoria tritici [3]; 500 ppm of active ingredient, wheat, preventive spray, evaluated 24 days after inoculation, read-out: efficacy",90 to 100%
same,pest or weed control at 100 ppm,"Septoria tritici [3]; Example Q3, rate of application 100 ppm, wheat, read-out: Efficacy in %",81%
same,pest or weed control at 500 ppm,"Septoria tritici [3]; Example Q3, rate of application 500 ppm, wheat, read-out: Efficacy in %",94%
same,pest or weed control at 100 ppm,"Septoria tritici [3]; Example R5, wheat, preventive spray, 100 ppm, evaluated 24 days after inoculation, read-out: Efficacy in %",94%
same,pest or weed control at 500 ppm,"Septoria tritici [3]; Example R5, wheat, preventive spray, 500 ppm, evaluated 24 days after inoculation, read-out: Efficacy in %",81%
same,pest or weed control at 500 ppm,"Botrytis cinerea [4]; Botrytis cinerea, 500 ppm of active ingredient, preventive spray, evaluated 4 to 5 days after inoculation, read-out: efficacy",90 to 100%
same,pest or weed control at 100 ppm,"Botrytis cinerea [4]; Botrytis cinerea, Example Q1, rate of application 100 ppm, read-out: Efficacy in %",99%
same,pest or weed control at 500 ppm,"Botrytis cinerea [4]; Botrytis cinerea, Example Q1, rate of application 500 ppm, read-out: Efficacy in %",100%
same,Efficacy in %,"Botrytis cinerea [4]; Example R2, rate of application 100 ppm",99%
same,Efficacy in %,"Botrytis cinerea [4]; Example R2, rate of application 500 ppm",100%
same,pest or weed control at 500 ppm,"Puccinia recondita; 500 ppm of active ingredient, wheat, read-out: efficacy",90 to 100%
same,pest or weed control at 100 ppm,"Puccinia recondita; Example R3, wheat, 100 ppm, read-out: Efficacy in %",89%
same,pest or weed control at 500 ppm,"Puccinia recondita; Example R3, wheat, 500 ppm, read-out: Efficacy in %",98%
same,pest or weed control at 500 ppm,"Uromyces appendiculatus; 500 ppm of active ingredient, bean, read-out: efficacy",90 to 100%
same,pest or weed control at 100 ppm,"Uromyces appendiculatus; Example R7, bean, 100 ppm, read-out: Efficacy in %",20%
same,pest or weed control at 500 ppm,"Uromyces appendiculatus; Example R7, bean, 500 ppm, read-out: Efficacy in %",100%
same,pest or weed control at 500 ppm,"Sphaerotheca fuliginea; 500 ppm of active ingredient, gherkin, read-out: efficacy",90 to 100%
same,pest or weed control at 100 ppm,"Sphaerotheca fuliginea; Example R6, gherkin, 100 ppm, read-out: Efficacy in %",100%
same,pest or weed control at 500 ppm,"Sphaerotheca fuliginea; Example R6, gherkin, 500 ppm, read-out: Efficacy in %",100%
same,chromatographic logP,[7],2.48
same,pest or weed control at 500 ppm,"Pyrenophora teres; 500 ppm of active ingredient, preventive spray, evaluated 14 days after inoculation, read-out: efficacy",90 to 100%
same,pest or weed control at 100 ppm,"Pyrenophora teres; Example Q2, rate of application 100 ppm, read-out: Efficacy in %",94%
same,pest or weed control at 500 ppm,"Pyrenophora teres; Example Q2, rate of application 500 ppm, read-out: Efficacy in %",98%
same,pest or weed control at 100 ppm,"Pyrenophora teres; Example R4, rate of application 100 ppm, read-out: Efficacy in %",94%
same,pest or weed control at 500 ppm,"Pyrenophora teres; Example R4, rate of application 500 ppm, read-out: Efficacy in %",98%
same,Botrytis cinerea ED50 value in ppm,Botrytis cinerea [5],0.02 ppm
same,pest or weed control at 500 ppm,"Alternaria brassicae; 500 ppm of active ingredient, preventive spray, evaluated 6 days after inoculation, read-out: efficacy",90 to 100%
same,pest or weed control at 100 ppm,"Alternaria brassicae; Example R1, rate of application 100 ppm, read-out: Efficacy in %",50%
same,pest or weed control at 500 ppm,"Alternaria brassicae; Example R1, rate of application 500 ppm, read-out: Efficacy in %",92%
same,pest or weed control at 100 ppm,Phakopsora pachyrhizi,90 to 100%
same,pest or weed control at 500 ppm,[8],90 to 100%
same,pest or weed control at 100 ppm,Alternaria solani,90 to 100%
